Our source for the IC50 values is US9000007B2, “5-benzylaminomethyl-6-aminopyrazolo [3, 4 -B] pyridine derivatives as cholesteryl ester-transfer protein (CETP) inhibitors useful for the treatment of atherosclerosis” (Dr. Reddy's Laboratories, Ltd., priority 2011, dated 2015).

The test deals with T1, recombinant CETP enzyme (rCETP) (Homo sapiens, UniProt P11597).
T1 construct: purchased ROAR Biomedicals, USA
T1 sequence (P11597 18-493): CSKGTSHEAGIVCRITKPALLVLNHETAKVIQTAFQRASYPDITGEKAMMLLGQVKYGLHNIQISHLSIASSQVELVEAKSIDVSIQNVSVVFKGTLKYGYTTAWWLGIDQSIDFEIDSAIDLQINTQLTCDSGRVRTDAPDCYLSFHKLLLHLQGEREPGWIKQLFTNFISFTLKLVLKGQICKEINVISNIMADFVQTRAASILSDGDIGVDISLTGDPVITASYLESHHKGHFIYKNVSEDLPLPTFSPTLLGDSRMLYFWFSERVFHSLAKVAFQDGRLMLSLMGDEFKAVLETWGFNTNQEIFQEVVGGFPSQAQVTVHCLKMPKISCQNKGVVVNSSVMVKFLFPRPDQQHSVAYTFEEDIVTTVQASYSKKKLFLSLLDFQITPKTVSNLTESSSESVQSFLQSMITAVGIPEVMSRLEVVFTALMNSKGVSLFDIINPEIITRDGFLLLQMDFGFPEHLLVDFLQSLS
In words: In vitro CETP inhibition assay, fluorometric kit (ROAR Biomedicals). The format is biochemical. As to conditions: rCETP 50 ng, 37° C. for 90 minutes, fluorescence Ex 492 nm / Em 516 nm. The source says:
Determination of in Vitro CETP Activity Using Fluorometric Technique
An in vitro cholesteryl ester transfer protein inhibition (CETP) assay using a commercially available fluorometric assay kit from ROAR Biomedicals, USA was used to measure the CETP inhibition activity of the compounds of this application. This assay kit uses a donor molecule containing a fluorescent self-quenched neutral lipid that is transferred to an acceptor molecule in the presence of recombinant CETP enzyme (rCETP). The CETP-mediated transfer of the fluorescent neutral lipid to the acceptor molecule results in an increase in fluorescence (Excitation: 492 nm; Emission: 516 nm).
20 mM stock solutions of compounds were prepared in 100% DMSO and further dilutions were made such that the final concentration of DMSO in the reaction mix was 1%. […] The assay was performed in 96 well microplates and in each well, the reaction mixture contained 190 μl of assay buffer (150 mM NaCl, 10 mM Tris and 2 mM EDTA, pH-7.4), 4 μl of donor particle, 4 μl of acceptor particle, rCETP (50 ng) and 2 μl of test compound at varying final concentration of 0.1, 1, 10, 100, 1000 & 10000 nM. Two control reactions were performed, one without test compound (positive control) and the other without the rCETP (negative control). The reactions were incubated at 37° C. for 90 minutes and the reaction plate was transferred to a PCR machine MX3005P and the fluorescence units (FLU) were quantified (Excitation: 492 nm; Emission: 516 nm).
The negative control values were subtracted from the positive control as well as all the test values to correct for background fluorescence. The percentage inhibition of activity was calculated by using the following equation: % Inhibition of CETP activity=[100−(100×(FLU in test/FLU in positive control))].
The half maximal inhibitory concentration (IC50) was determined using the BIOGRAPH software (version no. 3.3).

`Cc1nn(C(C)(C)C)c2nc(N(CC3CC3)CC3CC3)c(CN(Cc3cc(C(F)(F)F)cc(C(F)(F)F)c3)c3ncc(NC(=O)C(C)C)cn3)cc12` [Example 1, N-(2-(((6-(bis(cyclopropylmethyl)amino)-1-(tert-butyl)-3-methyl-1H-pyrazolo[3,4-b]pyridin-5-yl)methyl)(3,5-bis(trifluoromethyl)benzyl)amino)pyrimidin-5-yl) isobutyramide]: the IC50 came out at 64 nM.
The same measure for `Cc1nn(C(C)(C)C)c2nc(N(CC3CC3)CC3CC3)c(CN(Cc3cc(C(F)(F)F)cc(C(F)(F)F)c3)c3ccc(C4CC4)cn3)cc12` [Example 2, 5-(((3,5-Bis(trifluoromethyl)benzyl)(5-cyclopropylpyridin-2-yl)amino)methyl)-1-(tert-butyl)-N,N-bis(cyclopropylmethyl)-3-methyl-1H-pyrazolo[3,4-b]pyridin-6-amine]: 78 nM; for `Cc1nn(C(C)(C)C)c2nc(N(CC3CC3)CC3CC3)c(CN(Cc3cc(C(F)(F)F)cc(C(F)(F)F)c3)c3ncc(NC(=O)C4CC4)cn3)cc12` [Example 3, N-(2-(((6-(bis(cyclopropylmethyl)amino)-1-(tert-butyl)-3-methyl-1H-pyrazolo[3,4-b]pyridin-5-yl)methyl)(3,5-bis(trifluoromethyl)benzyl)amino)pyrimidin-5-yl)cyclopropanecarboxamide]: 35 nM; for `CC(=O)c1cnc(N(Cc2cc(C(F)(F)F)cc(C(F)(F)F)c2)Cc2cc3c(C)nn(C)c3nc2N(CC2CC2)CC2CC2)nc1` [Example 4, 1-(2-(((6-(bis(cyclopropylmethyl)amino)-1,3-dimethyl-1H-pyrazolo[3,4-b]pyridin-5-yl)methyl)(3,5-bis(trifluoromethyl)benzyl)amino)pyrimidin-5-yl)ethanone]: 5.7 nM.
With `CC(=O)c1cnc(N(Cc2cc(C(F)(F)F)cc(C(F)(F)F)c2)Cc2cc3c(C)nn(C(C)(C)C)c3nc2N(CC2CC2)CC2CC2)nc1` [Example 5, 1-(2-(((6-(bis(cyclopropylmethyl)amino)-1-(tert-butyl)-3-methyl-1H-pyrazolo[3,4-b]pyridin-5-yl)methyl)(3,5-bis(trifluoromethyl)benzyl)amino)pyrimidin-5-yl)ethanone], the IC50 is 41.5 nM.
The same measure for `Cc1nn(C(C)(C)C)c2nc(N(CC3CC3)CC3CC3)c(CN(Cc3cc(C(F)(F)F)cc(C(F)(F)F)c3)c3ncc(-c4ccon4)cn3)cc12` [Example 7]: 9.4 nM; for `Cc1nn(C(C)(C)C)c2nc(N(CC3CC3)CC3CC3)c(CN(Cc3cc(C(F)(F)F)cc(C(F)(F)F)c3)c3ncc(-c4cc[nH]n4)cn3)cc12` [Example 8, 5-(((5-(1H-pyrazol-3-yl)pyrimidin-2-yl)(3,5-bis(trifluoromethyl)benzyl)amino)methyl)-1-(tert-butyl)-N,N-bis(cyclopropylmethyl)-3-methyl-1H-pyrazolo[3,4-b]pyridin-6-amine]: 27 nM; for `Cc1nn(C(C)(C)C)c2nc(N(CC3CC3)CC3CC3)c(CN(Cc3cc(C(F)(F)F)cc(C(F)(F)F)c3)c3ncc(-c4ccn(C)n4)cn3)cc12` [Example 9, 5-(((3,5-Bis(trifluoromethyl)benzyl)(5-(1-methyl-1H-pyrazol-3-yl)pyrimidin-2-yl)amino)methyl)-1-(tert-butyl)-N,N-bis(cyclopropylmethyl)-3-methyl-1H-pyrazolo[3,4-b]pyridin-6-amine]: 100 nM.
`Cc1nn(C(C)(C)C)c2nc(N(CC3CC3)CC3CC3)c(CN(Cc3cc(C(F)(F)F)cc(C(F)(F)F)c3)c3ncc(C#N)cn3)cc12` [Example 10, 2-(((6-(bis(cyclopropylmethyl)amino)-1-(tert-butyl)-3-methyl-1H-pyrazolo[3,4-b]pyridin-5-yl)methyl)(3,5-bis(trifluoromethyl)benzyl)amino)pyrimidine-5-carbonitrile]: the IC50 came out at 1250 nM.
The same measure for `Cc1nn(C(C)(C)C)c2nc(N(CC3CC3)CC3CC3)c(CN(Cc3cc(C(F)(F)F)cc(C(F)(F)F)c3)c3ncc(C(N)=O)cn3)cc12` [Example 11, 2-(((6-(bis(cyclopropylmethyl)amino)-1-(tert-butyl)-3-methyl-1H-pyrazolo[3,4-b]pyridin-5-yl)methyl)(3,5-bis(trifluoromethyl)benzyl)amino)pyrimidine-5-carboxamide]: 18 nM; for `Cc1nn(C(C)(C)C)c2nc(N(CC3CC3)CC3CC3)c(CN(Cc3cc(C(F)(F)F)cc(C(F)(F)F)c3)c3ncc(C(=O)N(C)C)cn3)cc12` [Example 12, 2-(((6-(bis(cyclopropylmethyl)amino)-1-(tert-butyl)-3-methyl-1H-pyrazolo[3,4-b]pyridin-5-yl)methyl)(3,5-bis(trifluoromethyl)benzyl)amino)-N,N-dimethylpyrimidine-5-carboxamide]: 215 nM.
The figure for `Cc1nn(C(C)(C)C)c2nc(N(CC3CC3)CC3CC3)c(CN(Cc3cc(C(F)(F)F)cc(C(F)(F)F)c3)c3ncc(N4CCOC4=O)cn3)cc12` [Example 13, 3-(2-(((6-(bis(cyclopropylmethyl)amino)-1-(tert-butyl)-3-methyl-1H-pyrazolo[3,4-b]pyridin-5-yl)methyl)(3,5-bis(trifluoromethyl)benzyl)amino)pyrimidin-5-yl)oxazolidin-2-one] is 10 nM.
For the compound `Cc1nn(C(C)(C)C)c2nc(N(CC3CC3)CC3CC3)c(CN(Cc3cc(C(F)(F)F)cc(C(F)(F)F)c3)c3ncc(N4CCOCC4)cn3)cc12` [Example 14, 5-(((3,5-Bis(trifluoromethyl)benzyl)(5-morpholinopyrimidin-2-yl)amino)methyl)-1-(tert-butyl)-N,N-bis(cyclopropylmethyl)-3-methyl-1H-pyrazolo[3,4-b]pyridin-6-amine], the IC50 came to 46 nM.
The same measure for `Cc1nn(C)c2nc(N(CC3CC3)CC3CC3)c(CN(Cc3cc(C(F)(F)F)cc(C(F)(F)F)c3)c3ncc(N4CCOCC4)cn3)cc12` [Example 15, 5-(((3,5-bis(trifluoromethyl)benzyl)(5-morpholinopyrimidin-2-yl)amino)methyl)-N,N-bis(cyclopropylmethyl)-1,3-dimethyl-1H-pyrazolo[3,4-b]pyridin-6-amine]: 49 nM.
The figure for `Cc1nn(C(C)(C)C)c2nc(N(CC3CC3)CC3CC3)c(CN(Cc3cc(C(F)(F)F)cc(C(F)(F)F)c3)c3ncc(N4CCCC4=O)cn3)cc12` [Example 16, 1-(2-(((6-(Bis(cyclopropylmethyl)amino)-1-(tert-butyl)-3-methyl-1H-pyrazolo[3,4-b]pyridin-5-yl)methyl)(3,5-bis(trifluoromethyl)benzyl)amino)pyrimidin-5-yl)pyrrolidin-2-one] is 56 nM.
In the case of `Cc1nc(N(Cc2cc(C(F)(F)F)cc(C(F)(F)F)c2)Cc2cc3c(C)nn(C(C)(C)C)c3nc2N(CC2CC2)CC2CC2)ncc1C(=O)O` [Example 18, 2-(((6-(Bis(cyclopropylmethyl)amino)-1-(tert-butyl)-3-methyl-1H-pyrazolo[3,4-b]pyridin-5-yl)methyl)(3,5-bis(trifluoromethyl)benzyl)amino)-4-methylpyrimidine-5-carboxylic acid], the IC50 amounted to 54 nM.
The same measure for `CCOC(=O)c1cnc(N(Cc2cc(C(F)(F)F)cc(C(F)(F)F)c2)Cc2cc3c(C)nn(C(C)(C)C)c3nc2N(CC2CC2)CC2CC2)nc1` [Example 19, Ethyl 2-(((6-(bis(cyclopropylmethyl)amino)-1-(tert-butyl)-3-methyl-1H-pyrazolo[3,4-b]pyridin-5-yl)methyl)(3,5-bis(trifluoromethyl)benzyl)amino)pyrimidine-5-carboxylate]: 70 nM.
As to `Cc1nn(C(C)(C)C)c2nc(N(CC3CC3)CC3CC3)c(CN(Cc3cc(C(F)(F)F)cc(C(F)(F)F)c3)c3ncc(C(=O)O)cn3)cc12` [Example 20, 2-(((6-(Bis(cyclopropylmethyl)amino)-1-(tert-butyl)-3-methyl-1H-pyrazolo[3,4-b]pyridin-5-yl)methyl)(3,5-bis(trifluoromethyl)benzyl)amino)pyrimidine-5-carboxylic acid], the IC50 was found to be 61 nM.

In general, IC50 refers to the concentration that gives 50% inhibition.
